Calls of active or inactive are those of the source. No cut-off for these calls is given here.
Columns and labels:
Histone deacetylase [1] = assay: Inhibition of HDAC in human HeLa nuclear extract incubated for 30 mins by fluorescence-based Glo-luminescence assay; assay type: cell-based
Histone deacetylase 8 = target: T1, Histone deacetylase 8 (Homo sapiens, UniProt Q9BY41); assay: Inhibition of full length recombinant N-terminal GST-tagged human HDAC8 expressed in baculovirus infected Sf9 insect cells incubated for 50 mins by Glo- luminescence assay
T1 sequence (Q9BY41 whole entry): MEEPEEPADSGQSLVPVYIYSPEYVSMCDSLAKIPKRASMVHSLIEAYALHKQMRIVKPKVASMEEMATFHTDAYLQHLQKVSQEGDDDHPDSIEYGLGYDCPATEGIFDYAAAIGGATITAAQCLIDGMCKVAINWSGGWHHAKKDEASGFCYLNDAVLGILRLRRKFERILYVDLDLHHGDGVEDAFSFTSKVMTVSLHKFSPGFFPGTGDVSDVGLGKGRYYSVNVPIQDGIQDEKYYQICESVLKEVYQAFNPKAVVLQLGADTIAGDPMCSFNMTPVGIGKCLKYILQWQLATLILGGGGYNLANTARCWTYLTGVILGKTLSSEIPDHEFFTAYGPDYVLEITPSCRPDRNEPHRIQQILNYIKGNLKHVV

[2] = Inhibition of full length recombinant N-terminal GST-tagged human HDAC11 expressed in baculovirus infected Sf9 insect cells incubated for 50 mins by Glo- luminescence assay; assay type: cell-based
Quadruplex DNA [3] = assay: Binding affinity to 5' FAM-labeled c-myc G4-quadruplex DNA Pu22 (unknown origin) assessed as dissociation constant by surface plasmon resonance assay; assay type: nucleic-acid assay
Quadruplex DNA [4] = assay: Binding affinity to 5' FAM and 3' TAMRA-labeled c-myc G4-quadruplex DNA duplex (unknown origin) assessed as change in melting temperature by fluorescence resonance energy transfer assay; assay type: nucleic-acid assay
[5] = Stabilization of DNA Pu22 (unknown origin ) single strand assessed as G4-quadruplex formation in absence of potassium ions by spectrum based circular dichroism analysis; details: dose <= 30.0 µM; DDE = dose-dependent effect
Quadruplex DNA [6] = assay: Binding affinity to […]' FAM-labeled c-myc G4-quadruplex DNA Pu22 (unknown origin) by fluorescence quench assay; assay type: nucleic-acid assay
Histone deacetylase [7] = assay: Inhibition of HDAC in human MDA-MB-231 cells incubated for 45 mins by luminescence assay; assay type: cell-based
MDA-MB-231 [8] = assay: Stabilization of DNA Pu22 (unknown origin ) in human MDA-MB-231 cells assessed as G4-quadruplex formation by measuring fold change at 1.25 to 5 uM incubated for 48 hrs by immunofluorescence based confocal laser scanning microscopic analysis; assay type: cell-based; details: dose 1.25-5 µM
MDA-MB-231 [9] = assay: Stabilization of DNA Pu22 (unknown origin ) in human MDA-MB-231 cells assessed as G4-quadruplex formation by measuring fold change at 2.5 uM incubated for 6 hrs by immunofluorescence based confocal laser scanning microscopic analysis; assay type: cell-based
MDA-MB-231 [10] = assay: Induction of DNA damage in human MDA-MB-231 cells at 1.25 to 5 uM assessed as increase in gamma-H2AX level and measured for 48 hrs by DAPI staining method; assay type: functional, cell-based; details: dose 1.25-5 µM
MDA-MB-231 [11] = assay: Effect on metabolism in human MDA-MB-231 cells assessed as reduction in glycolysis at 2.5 uM measured after 48 hrs by seahorse XF24 analysis; assay type: functional, cell-based
MDA-MB-231 [12] = assay: Cytotoxicity against human MDA-MB-231 cells harboring wild type BRCA1 and wild BRCA2 assessed as reduction in cell viability; assay type: functional, cell-based
MDA-MB-468 = assay: Cytotoxicity against human MDA-MB-468 cells harboring wild type BRCA1 and BRCA2 mutant reduction in assessed as cell viability; assay type: functional, cell-based
SUM-159-PT = assay: Cytotoxicity against human SUM159PT cells harboring wild type BRCA1 and wild type BRCA2 assessed as reduction in cell viability; assay type: functional, cell-based
BT-549 [13] = assay: Cytotoxicity against human BT-549 cells harboring wild type BRCA1 and wild type BRCA2 assessed as reduction in cell viability; assay type: functional, cell-based
MDA-MB-231 [14] = assay: Inhibition of colony formation in human MDA-MB-231 cells measured for 7 days by crystal violet staining based assay; assay type: functional, cell-based; details: dose 2.5 µM, time 7.0 day, DDE = dose-dependent effect
BT-549 [15] = assay: Inhibition of colony formation in human BT-549 cells measured for 7 days by crystal violet staining based assay; assay type: functional, cell-based; details: dose 2.5 µM, time 7.0 day, DDE = dose-dependent effect
[16] = Elimination half life in Sprague-Dawley rat at 2 mg/kg, iv measured up to 24 hrs by LC-MS/MS analysis; assay type: ADME, organism-based; details: in vivo, read-out: beta t1/2 (converted)
MDA-MB-231 [17] = assay: Antitumor activity against human MDA-MB-231 cells xenografted in BALB/c-nu/nu mouse assessed as reduction in tumor growth at 2.5 mg/kg, ip measured for 31 days; assay type: functional, organism-based; details: time 31.0 day
MDA-MB-231 [18] = assay: Antitumor activity against human MDA-MB-231 cells xenografted in BALB/c-nu/nu mouse assessed as increment ratio at 2.5 mg/kg, ip measured for 31 days; assay type: functional; details: time 31 day
[19] = Toxicity in BALB/c-nu/nu mouse at 2.5 mg/kg, ip measured for 31 days; assay type: organism-based; details: in vivo, 744 h, time 31 day

IC50 (Histone deacetylase [1]): 1900 nM | IC50 (Histone deacetylase 8): 30 nM | Kd (Quadruplex DNA [3]): 1600 nM | ΔTm (Quadruplex DNA [4]): 0.1 °C | Activity [5]: Dde | DC50 (Quadruplex DNA [6]): 100 nM | IC50 (Histone deacetylase [7]): 1100 nM | half-life [16]: 7.4 h
SMILES: CN(C)CCCNC(=O)c1ccc(/C=C2\CCn3c2nc2cc(N4CCN(CCCCCCCC(=O)NO)CC4)c(F)cc2c3=O)cc1.Cl
IC50 [2]: 1380 nM | fold change (FC) (MDA-MB-231 [8]): 8 | Activity (MDA-MB-231 [9]): Active | Activity (MDA-MB-231 [10]): Active | Activity (MDA-MB-231 [11]): Active | IC50 (MDA-MB-231 [12]): 4100 nM | IC50 (MDA-MB-468): 3300 nM | IC50 (SUM-159-PT): 7400 nM | IC50 (BT-549 [13]): 6500 nM | inhibition (MDA-MB-231 [14]): Dde | inhibition (BT-549 [15]): Dde | Activity (MDA-MB-231 [17]): Active | T/C (MDA-MB-231 [18]): 36.2% | Activity [19]: Non-Toxic

From ChEMBL document CHEMBL5113518, “Discovery of a Novel G-Quadruplex and Histone Deacetylase (HDAC) Dual-Targeting Agent for the Treatment of Triple-Negative Breast Cancer” (J Med Chem, 2022)
